The structures appear in SMILES notation.

What all share (test): Kinase panel enzymatic inhibition assay (Nanosyn)
What all share (assay type): biochemical

For one assay, the target named is T1, TYK2 (Homo sapiens, UniProt P29597).
T1 construct: purchased Nanosyn
Particulars: ATP at Km; 30-minute pre-incubation; read-out: kinase inhibition in terms of IC50, TYK2. The procedure, abridged:
(§1)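 Read-out is percent inhibition or IC50, obtained by mobility shift, ADP detection or time-resolved fluorescence detection. Each kinase was run with ATP at its Km, and compound at 5 μM was pre-incubated for 30 minutes.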

Another assay addresses T2, ITK (Homo sapiens, UniProt Q08881).
T2 construct: Nanosyn (contract laboratory that ran the panel)
T2 sequence (Q08881 1-620): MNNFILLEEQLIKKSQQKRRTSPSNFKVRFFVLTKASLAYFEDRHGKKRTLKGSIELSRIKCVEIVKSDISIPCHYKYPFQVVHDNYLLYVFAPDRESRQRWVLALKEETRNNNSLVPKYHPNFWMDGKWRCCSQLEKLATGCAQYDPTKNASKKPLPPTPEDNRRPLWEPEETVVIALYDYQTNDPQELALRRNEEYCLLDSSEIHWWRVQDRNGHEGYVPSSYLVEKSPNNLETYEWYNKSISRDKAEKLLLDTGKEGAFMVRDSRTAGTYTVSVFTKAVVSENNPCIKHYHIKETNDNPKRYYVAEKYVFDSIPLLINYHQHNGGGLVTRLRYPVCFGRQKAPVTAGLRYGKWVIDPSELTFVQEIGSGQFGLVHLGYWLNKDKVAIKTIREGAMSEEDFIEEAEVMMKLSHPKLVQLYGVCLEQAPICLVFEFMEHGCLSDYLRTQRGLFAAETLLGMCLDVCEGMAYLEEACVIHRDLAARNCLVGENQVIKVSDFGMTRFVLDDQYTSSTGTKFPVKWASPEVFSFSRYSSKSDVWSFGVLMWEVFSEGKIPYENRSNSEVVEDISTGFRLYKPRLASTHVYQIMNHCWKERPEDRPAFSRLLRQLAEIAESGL
The following applies: ATP at Km; 30-minute pre-incubation; read-out: kinase inhibition in terms of IC50, ITK. In a few lines: as §1

The target in another assay is T3, TYRO3 (Homo sapiens, UniProt Q06418).
T3 construct: purchased Nanosyn
T3 sequence (Q06418 41-890): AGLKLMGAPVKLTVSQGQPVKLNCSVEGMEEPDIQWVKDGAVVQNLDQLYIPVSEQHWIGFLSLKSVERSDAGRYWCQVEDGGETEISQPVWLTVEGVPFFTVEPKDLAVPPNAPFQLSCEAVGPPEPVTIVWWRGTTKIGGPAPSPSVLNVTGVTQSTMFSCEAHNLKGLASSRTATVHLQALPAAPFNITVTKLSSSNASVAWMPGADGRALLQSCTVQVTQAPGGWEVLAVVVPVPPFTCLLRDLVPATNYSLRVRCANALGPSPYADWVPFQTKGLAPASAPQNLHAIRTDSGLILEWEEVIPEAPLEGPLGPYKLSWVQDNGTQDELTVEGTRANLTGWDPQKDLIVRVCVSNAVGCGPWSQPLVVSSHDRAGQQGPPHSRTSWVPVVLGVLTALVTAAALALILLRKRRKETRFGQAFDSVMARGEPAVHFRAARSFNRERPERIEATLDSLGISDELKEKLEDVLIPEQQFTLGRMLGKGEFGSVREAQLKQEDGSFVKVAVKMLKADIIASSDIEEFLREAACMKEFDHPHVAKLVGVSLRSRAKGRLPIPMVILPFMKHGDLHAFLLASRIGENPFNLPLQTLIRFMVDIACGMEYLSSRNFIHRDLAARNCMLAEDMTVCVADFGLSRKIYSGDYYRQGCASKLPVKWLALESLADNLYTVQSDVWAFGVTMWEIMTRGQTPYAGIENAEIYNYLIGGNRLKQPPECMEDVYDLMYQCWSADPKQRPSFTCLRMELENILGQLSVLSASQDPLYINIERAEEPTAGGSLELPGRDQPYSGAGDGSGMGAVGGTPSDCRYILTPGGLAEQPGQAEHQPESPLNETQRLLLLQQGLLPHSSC
Particulars: ATP at Km; 30-minute pre-incubation; read-out: kinase inhibition in terms of IC50, TYRO3. The procedure, abridged:
as §1

In the next assay the target is T4, RIPK1 (Homo sapiens, UniProt Q13546).
T4 construct: purchased Nanosyn
T4 sequence (Q13546 1-671): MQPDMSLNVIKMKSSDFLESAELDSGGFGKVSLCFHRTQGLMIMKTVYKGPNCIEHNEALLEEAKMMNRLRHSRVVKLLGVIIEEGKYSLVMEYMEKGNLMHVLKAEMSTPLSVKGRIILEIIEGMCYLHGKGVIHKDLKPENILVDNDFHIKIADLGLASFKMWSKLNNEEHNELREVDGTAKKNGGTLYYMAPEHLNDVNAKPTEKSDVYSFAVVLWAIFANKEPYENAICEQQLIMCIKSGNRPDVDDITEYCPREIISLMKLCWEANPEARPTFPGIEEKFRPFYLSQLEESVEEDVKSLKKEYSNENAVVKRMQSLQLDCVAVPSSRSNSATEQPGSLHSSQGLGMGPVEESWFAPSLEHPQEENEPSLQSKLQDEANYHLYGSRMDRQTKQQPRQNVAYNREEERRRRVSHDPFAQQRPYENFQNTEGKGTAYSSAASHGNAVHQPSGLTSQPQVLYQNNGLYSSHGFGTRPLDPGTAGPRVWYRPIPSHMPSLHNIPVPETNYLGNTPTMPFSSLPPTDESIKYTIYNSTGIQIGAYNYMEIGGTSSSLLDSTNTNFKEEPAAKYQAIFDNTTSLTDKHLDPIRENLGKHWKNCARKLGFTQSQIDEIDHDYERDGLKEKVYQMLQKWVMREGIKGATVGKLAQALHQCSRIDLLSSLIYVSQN
The following applies: ATP at Km; 30-minute pre-incubation; read-out: kinase inhibition in terms of IC50, RIPK1. The procedure, abridged: as §1

Another assay addresses T5, RIPK2 (Homo sapiens, UniProt O43353).
T5 construct: purchased Nanosyn
The following applies: ATP at Km; 30-minute pre-incubation; read-out: kinase inhibition in terms of IC50, RIPK2. The procedure, abridged: as §1

For the next assay, the target named is T6, RIPK3 (Homo sapiens, UniProt Q9Y572).
T6 construct: purchased Nanosyn
T6 sequence (Q9Y572 whole entry): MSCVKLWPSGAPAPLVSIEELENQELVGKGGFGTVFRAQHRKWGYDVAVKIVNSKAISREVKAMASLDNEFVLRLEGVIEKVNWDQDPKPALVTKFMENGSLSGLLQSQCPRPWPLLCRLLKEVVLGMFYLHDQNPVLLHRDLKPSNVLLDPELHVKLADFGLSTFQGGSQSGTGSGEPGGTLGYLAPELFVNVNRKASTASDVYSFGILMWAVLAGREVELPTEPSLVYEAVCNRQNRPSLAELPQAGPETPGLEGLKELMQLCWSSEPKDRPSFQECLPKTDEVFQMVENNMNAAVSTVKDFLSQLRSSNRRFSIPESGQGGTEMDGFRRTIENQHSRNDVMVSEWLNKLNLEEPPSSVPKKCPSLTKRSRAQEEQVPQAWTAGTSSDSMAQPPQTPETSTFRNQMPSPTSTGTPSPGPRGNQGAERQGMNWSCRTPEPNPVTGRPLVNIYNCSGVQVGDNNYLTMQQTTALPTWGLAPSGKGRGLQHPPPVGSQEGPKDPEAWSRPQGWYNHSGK
The following applies: ATP at Km; 30-minute pre-incubation; read-out: kinase inhibition in terms of IC50, RIPK3. The procedure, abridged: as §1

T1 sequence (P29597 whole entry): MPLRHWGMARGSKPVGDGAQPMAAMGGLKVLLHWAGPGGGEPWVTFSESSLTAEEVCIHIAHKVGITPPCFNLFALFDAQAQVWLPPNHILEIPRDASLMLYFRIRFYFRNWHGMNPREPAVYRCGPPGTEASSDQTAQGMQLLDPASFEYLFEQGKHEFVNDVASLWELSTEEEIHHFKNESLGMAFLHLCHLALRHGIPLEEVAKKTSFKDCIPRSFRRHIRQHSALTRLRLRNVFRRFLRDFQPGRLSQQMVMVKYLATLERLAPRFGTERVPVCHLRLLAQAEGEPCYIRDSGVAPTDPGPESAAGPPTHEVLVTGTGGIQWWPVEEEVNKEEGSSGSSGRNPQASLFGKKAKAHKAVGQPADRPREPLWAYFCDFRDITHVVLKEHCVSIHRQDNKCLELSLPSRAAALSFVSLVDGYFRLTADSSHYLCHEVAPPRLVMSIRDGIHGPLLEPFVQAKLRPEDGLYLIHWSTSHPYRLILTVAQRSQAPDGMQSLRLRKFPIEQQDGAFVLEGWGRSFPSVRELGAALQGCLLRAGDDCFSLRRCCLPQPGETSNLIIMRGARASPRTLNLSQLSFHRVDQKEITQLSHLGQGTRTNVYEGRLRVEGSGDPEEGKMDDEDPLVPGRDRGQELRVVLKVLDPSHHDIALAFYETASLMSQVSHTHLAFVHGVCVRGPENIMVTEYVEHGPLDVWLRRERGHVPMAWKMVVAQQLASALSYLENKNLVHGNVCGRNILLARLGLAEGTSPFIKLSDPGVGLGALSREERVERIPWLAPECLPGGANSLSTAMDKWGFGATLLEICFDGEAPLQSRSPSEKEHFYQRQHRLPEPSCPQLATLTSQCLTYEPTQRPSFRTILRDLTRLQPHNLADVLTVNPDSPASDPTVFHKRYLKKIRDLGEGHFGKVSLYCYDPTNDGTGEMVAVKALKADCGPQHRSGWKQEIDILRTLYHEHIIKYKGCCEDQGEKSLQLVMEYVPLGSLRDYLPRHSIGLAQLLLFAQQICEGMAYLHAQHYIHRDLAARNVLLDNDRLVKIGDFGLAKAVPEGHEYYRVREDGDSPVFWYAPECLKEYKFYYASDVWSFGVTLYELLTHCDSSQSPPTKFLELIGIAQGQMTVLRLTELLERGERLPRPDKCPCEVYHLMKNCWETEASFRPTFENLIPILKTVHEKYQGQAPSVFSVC
T5 sequence (O43353 whole entry): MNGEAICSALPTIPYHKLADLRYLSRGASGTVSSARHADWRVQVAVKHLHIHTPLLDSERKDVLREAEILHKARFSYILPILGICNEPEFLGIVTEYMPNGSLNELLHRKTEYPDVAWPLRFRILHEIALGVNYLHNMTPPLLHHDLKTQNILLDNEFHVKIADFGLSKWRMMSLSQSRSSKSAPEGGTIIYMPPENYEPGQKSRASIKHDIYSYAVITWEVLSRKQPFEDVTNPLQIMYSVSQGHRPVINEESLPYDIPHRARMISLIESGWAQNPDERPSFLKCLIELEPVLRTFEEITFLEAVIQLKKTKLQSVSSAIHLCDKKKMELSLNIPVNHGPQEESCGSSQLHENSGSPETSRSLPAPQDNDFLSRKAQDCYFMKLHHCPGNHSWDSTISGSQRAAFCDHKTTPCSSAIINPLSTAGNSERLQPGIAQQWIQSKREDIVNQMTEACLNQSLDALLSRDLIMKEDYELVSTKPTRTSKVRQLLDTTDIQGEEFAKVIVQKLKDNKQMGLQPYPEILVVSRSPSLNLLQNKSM

Broadly, the IC50 is the concentration needed to halve the response being measured. For `COc1cc2nccc(Oc3ccc(NC(=O)c4cc(S(C)(=O)=O)n(-c5ccc(F)cc5)n4)cc3)c2cc1OC` [Ex72, N-(4-((6,7-dimethoxyquinolin-4-yl)oxy)phenyl)-1-(4-fluorophenyl)-5-(methylsulfonyl)-1H-pyrazole-3-carboxamide], the IC50 at TYK2 was 1 to 10 µM.
Regarding `COc1cc2nccc(Oc3ccc(NC(=O)c4cc(S(C)(=O)=O)n(-c5ccc(F)cc5)n4)cc3F)c2cc1OC` [Ex73, N-(4-((6,7-dimethoxyquinolin-4-yl)oxy)-3-fluorophenyl)-1-(4-fluorophenyl)-5-(methylsulfonyl)-1H-pyrazole-3-carboxamide], the IC50 on ITK lay in the range of 1 to 10 µM; on TYRO3, 1000 to 10000 nM.
Consider `COc1cc2nccc(Oc3ccc(NC(=O)c4cc(S(C)(=O)=O)n(-c5ccc(F)cc5)n4)c(F)c3)c2cc1OC` [Ex71, N-(4-((6,7-dimethoxyquinolin-4-yl)oxy)-2-fluorophenyl)-1-(4-fluorophenyl)-5-(methylsulfonyl)-1H-pyrazole-3-carboxamide], for which the half-inhibitory concentration (IC50) at ITK was at least 10 µM; on RIPK1 it was at least 10 µM; at RIPK2, 500 to 1000 nM; on RIPK3, 1 to 10 µM; at TYK2 it was at least 10 µM; on TYRO3, below 500 nM.

Values taken from patent publication US20240400577A1, “MODULATORS OF PROTEIN KINASES” (VIBLIOME THERAPEUTICS, LLC, priority 2021, published 2024).
